The values below are quoted from earlier work in patent US20110105488A1, “SUBSTITUTED PYRROLIDINE AND PIPERIDINE COMPOUNDS, DERIVATIVES THEREOF, AND METHODS FOR TREATING PAIN” (Chlorion Pharma, Inc., priority 2008, published 2011).

One data set relates to patients. Conditions: human, in vivo.
In data set [1] the test system is patients with post-herpetic neuralgia.
The test system of the next data set is clinical trial subjects. The settings on record: review of multiple clinical studies.

Each structure is given as a SMILES string.

For the compound `NC(=O)N1c2ccccc2C=Cc2ccccc21` [carbamazepine], in the data set on patients, the adverse effects evoked entry is recorded as “various sensory deficits”; the “patients with rash and leucopenia” value is listed as approximately 10%.

On to `NCC1(CC(=O)O)CCCCC1` [gabapentin], for which the “mean endpoint pain score” value in data set [1] (8-week trials, mean baseline 6.3) was 4.2. Moreover, the decrease in pain in data set [1] (two placebo-controlled, parallel-group trials of 8-weeks duration) is given as approximately 33%.

Turning to `CC(C)C[C@H](CN)CC(=O)O` [pregabalin], the adverse effects evoked result in the data set with clinical trial subjects is “significant somnolence, vertigo, and headache”.
